Results as given in patent US20090317372A1, “SMALL MOLECULES FOR THE REDUCTION OF HIGH BLOOD GLUCOSE LEVEL” (priority 2008, published 2009).

Legend:
Format in all cases: in vivo
Wistar rats = experiment: Glucose tolerance test in starved rats
Experimental: Male Wistar rats weighing 240-270-g were divided into 3 groups, each group consisting of 6 or 7 animals. To ensure standard conditions animals were starved for 14 hours before the start of the experiment. CCcompound1 and CCcompound3 were injected (i.p.) 30 min prior to injecting 3-g/kg of glucose (i.p.). Blood sugar values of the experimental animals were measured with the Fast Glucose C-test; blood samples were taken from the tail. The data are the mean±std. dev. of 6-7 determinations, i.e. one determination with each of the 6-7 animals in the respective groups.

C57/BL/6 mice [1] = experiment: Blood glucose level in normal (non-diabetic) mice without glucose challenge; conditions: food deprived 2 h
Experimental: Female C57/BL/6 mice (25-27-g body weight) were deprived of food for 2 hours and then injected with 4.5-mg/kg of CCcompound1. Blood samples for glucose measurements were taken from the eyes (canthus) just before the administration of CCcompound1 (0 min) as well as 30 min and 120 min after the administration of CCcompound1. Glucose concentrations in whole blood samples were immediately measured with the Fast Glucose C test. The data are the mean±std.dev. of 5 determinations, i.e. one determination with each of the 5 animals. […] In this experiment, the period of food deprivation was short enough that compensatory mechanisms could maintain the blood glucose level near the normal 5-mM value. The condition employed also reflects the human eating habits, because normally there is at least a 2 hours interval between meals and snacks. Thus, with normal subjects under normal conditions, CC compounds are not expected to appreciably change the physiological level of blood glucose level that is about 5-mM on average.

C57/BL/6 mice [2] = experiment: Glucose tolerance test with normal mice, PALP and CCcompound1 combined
Experimental: Female C57/BL/6 mice weighing 24-26-g and fasted for 12 hours before i.p. glucose administration (3 g/kg) were used. None of the animals received any food during the experiment other than glucose. One group of animals was untreated while animals in other groups received subcutaneous (s.c.) injections of 2.0 or 4.5-mg/kg of CCcompound1 either 30 min or 60 min prior to glucose administration as indicated in TABLE 5. Two groups of animals received i.p. injections of 0.4-mg per mouse (˜16-mg per kg) of highly purified PALP 24 hours prior to glucose administration. Purification of PALP was described in detail earlier [Z. Kiss, U.S. Pat. No. 7,048,914, “Placental Alkaline Phosphatase to Control Diabetes]. Animals in one of the PALP treated group also received s.c. injections of 4.5-mg/kg of CCcompound1 30 min prior to glucose administration as indicated in TABLE 5. Blood samples were taken and glucose concentrations were immediately measured as described earlier. Each group included five animals. The data are the mean±std. dev. of 5 determinations, i.e. one determination with each of the five animals. “-min” and “-h” indicates the length of period in minutes and hours, respectively, elapsed between the administration of test agents (first) and glucose (second).

ob/ob mice = experiment: Blood glucose level of normally fed ob/ob obese diabetic mice, daily treatment; conditions: 4.5-mg/kg s.c. once daily
Excerpt: Adult female leptin-deficient ob/ob obese diabetic inbred specified pathogen free (SPF) hygienic category mice from Charles River VRF1 were used for these experiments. The mice weighed 32-36-g at arrival. The ob/ob obese mouse is an extensively used animal model for the study of non-insulin-dependent-diabetes mellitus (NIDDM). The mutation was propagated in the C57BL/6J (BL/6) inbred strain. Homozygous obese (ob/ob) animals developed hyperglycemia due to insulin resistance, hyperinsulinemia (to compensate for reduced insulin action), and obesity. In these animals gluconeogenesis is enhanced despite their hyperinsulinemic state. The animals were kept in macrolon cages at 22-24° C. and 50-60% humidity, with lighting regimen of 12/12 h light dark. They had free access to tap water and were fed a sterilized standard diet (Charles River VRF1, autoclavable). The animals were cared for according to the “Guiding Principles for the Care and Use for Animals” based upon the Helsinki declaration. The ob/ob mice gained weight rapidly and developed a marked obesity by 5-6 weeks of age. […] When arrived they were 5 weeks old (when the experiment was performed with CCcompound1) or 4.5 weeks old (when the experiment was performed with CCcompound3 and CCcompound19). The treatments started 8 days later in the experiment performed with CCcompound1 and 10 days later in the experiment performed with CCcompound3 and CCcompound19. Experimental groups selected from ob/ob mice were injected subcutaneously (s.c.) at regular intervals once daily for 14 days with CCcompound1 or an analog (CCcompound3 or CCcompound19) each at the dose of 4.5-mg per kg. Control groups were also selected from ob/ob mice that remained untreated during the entire length of the experiment. In the first experiment, for which the data is presented in TABLE 11, blood samples were taken either 45 min or 6 hours after treatments with CCcompound1. In the second experiment, for which the data is presented in TABLE 12, blood samples were taken 45 min after treatments with the analogs of CCcompound1. Blood glucose was determined with the Fast Glucose C test. Both the untreated and CC compound-treated groups included 5 animals. The data are the mean±std. dev.

For `Cc1c(OCC(O)C[N+](C)(C)C)cc2c(=O)c3ccccc3sc2c1C.[Cl-]` (stereo not shown) [CCcompound 1, [3-(3,4-Dimethyl-9-oxo-9H-thioxanthen-2-yloxy)-2-hydroxypropyl]trimethyl-ammonium chloride], the Blood glucose (Wistar rats; rats starved 14 h, i.p. 30 min prior to glucose 3-g/kg i.p., 0 min) was 5.03 ± 0.44 mM, the Blood glucose (Wistar rats; rats, i.p. 30 min prior to glucose, 30 min) was 9.21 ± 0.45 mM and the Blood glucose (Wistar rats; rats, i.p. 30 min prior to glucose, 60 min) was 5.73 ± 0.39 mM. It also gave a Blood glucose (Wistar rats; rats, i.p. 30 min prior to glucose, 90 min) of 5.11 ± 0.42 mM, a Blood glucose (Wistar rats; rats, i.p. 30 min prior to glucose, 120 min) of 5.37 ± 0.36 mM and a Blood glucose (C57/BL/6 mice [1]; 0 min, just before 4.5-mg/kg) of 5.1 ± 0.5 mM. For the same compound, the Blood glucose (C57/BL/6 mice [1]; 30 min after 4.5-mg/kg) was 4.9 ± 0.4 mM, the Blood glucose (C57/BL/6 mice [1]; 120 min after 4.5-mg/kg) was 4.9 ± 0.6 mM and the Blood glucose (C57/BL/6 mice [2]; CC1 2 mg/kg s.c. −30 min, 0 min) was 3.7 ± 0.4 mM. The Blood glucose (C57/BL/6 mice [2]; CC1 2 mg/kg s.c. −30 min, 30 min) was 6.6 ± 0.4 mM, the Blood glucose (C57/BL/6 mice [2]; CC1 2 mg/kg s.c. −30 min, 60 min) was 4.9 ± 0.6 mM and the Blood glucose (C57/BL/6 mice [2]; CC1 2 mg/kg s.c. −30 min, 120 min) was 4.4 ± 0.5 mM. It also gave a Blood glucose (C57/BL/6 mice [2]; CC1 2 mg/kg s.c. −60 min, 0 min) of 3.9 ± 0.6 mM, a Blood glucose (C57/BL/6 mice [2]; CC1 2 mg/kg s.c. −60 min, 30 min) of 6.7 ± 0.5 mM and a Blood glucose (C57/BL/6 mice [2]; CC1 2 mg/kg s.c. −60 min, 60 min) of 5.2 ± 0.3 mM. It also gave a Blood glucose (C57/BL/6 mice [2]; CC1 2 mg/kg s.c. −60 min, 120 min) of 4.6 ± 0.3 mM, a Blood glucose (C57/BL/6 mice [2]; CC1 4.5 mg/kg s.c. −30 min, 0 min) of 3.6 ± 0.4 mM and a Blood glucose (C57/BL/6 mice [2]; CC1 4.5 mg/kg s.c. −30 min, 30 min) of 6.2 ± 0.4 mM. It also gave a Blood glucose (C57/BL/6 mice [2]; CC1 4.5 mg/kg s.c. −30 min, 60 min) of 4.5 ± 0.3 mM, a Blood glucose (C57/BL/6 mice [2]; CC1 4.5 mg/kg s.c. −30 min, 120 min) of 4.2 ± 0.4 mM and a Blood glucose (C57/BL/6 mice [2]; CC1 4.5 mg/kg s.c. −60 min, 0 min) of 3.8 ± 0.5 mM. It also gave a Blood glucose (C57/BL/6 mice [2]; CC1 4.5 mg/kg s.c. −60 min, 30 min) of 6.4 ± 0.3 mM, a Blood glucose (C57/BL/6 mice [2]; CC1 4.5 mg/kg s.c. −60 min, 60 min) of 4.5 ± 0.5 mM and a Blood glucose (C57/BL/6 mice [2]; CC1 4.5 mg/kg s.c. −60 min, 120 min) of 4.1 ± 0.6 mM. It also gave a Glucose level (ob/ob mice; 45 min after treatment, day 1) of 6.2 ± 0.4 mM, a Glucose level (ob/ob mice; 45 min after treatment, day 4) of 7.4 ± 0.3 mM and a Glucose level (ob/ob mice; 45 min after treatment, day 7) of 8.4 ± 0.2 mM. The Glucose level (ob/ob mice; 45 min after treatment, day 11) was 9.2 ± 0.3 mM, the Glucose level (ob/ob mice; 45 min after treatment, day 14) was 10.2 ± 0.3 mM and the Glucose level (ob/ob mice; 6 hours after treatment, day 4) was 11.3 ± 0.7 mM. The Glucose level (ob/ob mice; 6 hours after treatment, day 7) was 13.8 ± 0.4 mM, the Glucose level (ob/ob mice; 6 hours after treatment, day 11) was 15.7 ± 0.4 mM and the Glucose level (ob/ob mice; 6 hours after treatment, day 14) was 17.5 ± 0.4 mM. The Glucose level (ob/ob mice; blood 6 hours after treatment, day 1) was 9.3 ± 0.4 mM.
